Data as given in ChEMBL document CHEMBL3632568, “Synthesis and biological evaluation of polyalthic acid derivatives for the treatment of neglected diseases” (Bioorg Med Chem Lett, 2015).
Converted amounts (≈) assume the structure as drawn. The source made the active and inactive calls. The rule behind the calls is not given here.

Legend:
Format in all cases: functional, organism-based
Leishmania donovani [1] = test: Antileishmanial activity against axenic amastigote stage of Leishmania donovani assessed as growth inhibition after 72 hrs by Alamar Blue assay
Trypanosoma brucei = test: Antitrypanosomal activity against trypamastigote stage of Trypanosoma brucei assessed as growth inhibition after 72 hrs by Alamar Blue assay
Leishmania donovani [2] = test: Antileishmanial activity against promastigote stage of Leishmania donovani assessed as growth inhibition at 0.0128 to 40 ug/ml after 72 hrs by Alamar Blue assay

| IC50 (Trypanosoma brucei) [µg/mL] | IC90 (Trypanosoma brucei) [µg/mL] | Compound | IC50 (Leishmania donovani [1]) [µg/mL] | IC90 (Leishmania donovani [1]) [µg/mL] | inhibition (Leishmania donovani [2]) |
| --- | --- | --- | --- | --- | --- |
| 6.14 (≈ 16.5 µM) | 9.13 (≈ 24.6 µM) | C=C1CC[C@H]2[C@@](C)(CCC[C@]2(C)C(=O)NCCCC)[C@@H]1CCc1ccoc1 | 5.93 (≈ 16 µM) | 9.02 (≈ 24.3 µM) | inactive |
| > 10 | > 10 | C=C1CC[C@H]2[C@@](C)(CCC[C@]2(C)C(=O)NCCN(C)C)[C@@H]1CCc1ccoc1 | > 10 | > 10 | inactive |
| 5 (≈ 13.5 µM) | 8.82 (≈ 23.7 µM) | C=C1CC[C@H]2[C@@](C)(CCC[C@]2(C)C(=O)N(CC)CC)[C@@H]1CCc1ccoc1 | 5.12 (≈ 13.8 µM) | 8.75 (≈ 23.5 µM) | inactive |
| 5.75 (≈ 14 µM) | 8.52 (≈ 20.7 µM) | C=C1CC[C@H]2[C@@](C)(CCC[C@]2(C)C(=O)NCC2CCCCC2)[C@@H]1CCc1ccoc1 | 3.84 (≈ 9.33 µM) | 7.75 (≈ 18.8 µM) | inactive |
| 2.58 (≈ 6.91 µM) | 4.71 (≈ 12.6 µM) | C=C1CC[C@H]2[C@@](C)(CCC[C@]2(C)C(=O)NCCOC)[C@@H]1CCc1ccoc1 | 6.73 (≈ 18 µM) | > 10 | inactive |
| 2.74 (≈ 7.66 µM) | 4.9 (≈ 13.7 µM) | C=C1CC[C@H]2[C@@](C)(CCC[C@]2(C)C(=O)NC(C)C)[C@@H]1CCc1ccoc1 | 7.04 (≈ 19.7 µM) | > 10 | inactive |
| 9.88 (≈ 24.7 µM) | > 10 | C=C1CC[C@H]2[C@@](C)(CCC[C@]2(C)C(=O)NC2CCOCC2)[C@@H]1CCc1ccoc1 | > 10 | > 10 | inactive |
| > 10 | > 10 | C=C1CC[C@H]2[C@@](C)(CCC[C@]2(C)C(=O)NCCOCCO)[C@@H]1CCc1ccoc1 | > 10 | > 10 | inactive |
| 6.85 (≈ 17.2 µM) | > 10 | C=C1CC[C@H]2[C@@](C)(CCC[C@]2(C)C(=O)N2CCN(C)CC2)[C@@H]1CCc1ccoc1 | > 10 | > 10 | inactive |
| 4.62 (≈ 12 µM) | 8.3 (≈ 21.5 µM) | C=C1CC[C@H]2[C@@](C)(CCC[C@]2(C)C(=O)N2CCOCC2)[C@@H]1CCc1ccoc1 | 9.9 (≈ 25.7 µM) | > 10 | inactive |
| 6.51 (≈ 14.6 µM) | 9.15 (≈ 20.5 µM) | C[C@@]12CCC[C@](C)(C(=O)NCC3CCCCC3)[C@H]1CCC(O)(CO)[C@H]2CCc1ccoc1 (some centres not stated) | > 10 | > 10 | inactive |
| 6.25 (≈ 14.9 µM) | > 10 | C[C@@]12CCC[C@](C)(C(=O)N3CCOCC3)[C@H]1CCC(O)(CO)[C@H]2CCc1ccoc1 (some centres not stated) | > 10 | > 10 | inactive |
| 3.87 (≈ 12.2 µM) | 8.12 (≈ 25.7 µM) | C=C1CC[C@H]2[C@@](C)(CCC[C@]2(C)C(=O)O)[C@@H]1CCc1ccoc1 | 8.68 (≈ 27.4 µM) | > 10 |  |
| 5.62 (≈ 15.8 µM) | 8.96 (≈ 25.2 µM) | C=C1CC[C@H]2[C@@](C)(CCC[C@]2(C)C(=O)NC2CC2)[C@@H]1CCc1ccoc1 | 8.21 (≈ 23.1 µM) | > 10 | inactive |
| 7.68 (≈ 18.8 µM) | > 10 | COCCNC(=O)[C@@]1(C)CCC[C@@]2(C)[C@H](CCc3ccoc3)C(O)(CO)CC[C@@H]21 (some centres not stated) | > 10 | > 10 | inactive |
| 3.58 (≈ 9 µM) | 8.1 (≈ 20.4 µM) | C=C1CC[C@H]2[C@@](C)(CCC[C@]2(C)C(=O)NC2CCCCC2)[C@@H]1CCc1ccoc1 | 4.23 (≈ 10.6 µM) | 8.19 (≈ 20.6 µM) | inactive |
| 4.52 (≈ 4.89 µM) | 10.1 (≈ 10.9 µM) | C[C@@H]1[C@H](O)[C@@H](C)/C=C/C=C/C=C/C=C/C=C/C=C/C=C/[C@H](O[C@@H]2O[C@H](C)[C@@H](O)[C@H](N)[C@@H]2O)C[C@@H]2O[C@](O)(C[C@@H](O)C[C@@H](O)[C@H](O)CC[C@@H](O)C[C@@H](O)CC(=O)O[C@H]1C)C[C@H](O)[C@H]2C(=O)O [AMPHOTERICIN B] | 0.195 (≈ 0.211 µM) | 0.301 (≈ 0.326 µM) |  |
| 0.002 (≈ 0.00587 µM) | 0.003 (≈ 0.00881 µM) | N=C(N)c1ccc(OCCCCCOc2ccc(C(=N)N)cc2)cc1 [PENTAMIDINE] | 1.89 (≈ 5.54 µM) | 5.81 (≈ 17.1 µM) |  |
